Earlier results as cited in paper PMC8513935.
Values belong to the compound of their own block, whether it stands above or below them.

Columns and labels:
[1] = log P octanol/water from commercial databases, averaged (the ESI); conditions: Octanol (wet), 25 C
[2] = experimental, compiled by the authors from the literature (the ESI cites the sources)
[3] = derived by the authors as gas->solvent minus gas->water (a hypothetical dry solvent; the ESI), not a two-phase measurement

Compound: C=CCCC
log K of transfer, water to solvent [1]: 2.8 log10 K
log K of transfer, gas to solvent ([2]; 1,2-Dichloroethane, 25 C): 2.1 log10 K
log K of transfer, gas to solvent ([2]; Butan-1-ol, 25 C): 1.94 log10 K
log K of transfer, gas to solvent ([2]; Butanone, 25 C): 2.11 log10 K
log K of transfer, gas to solvent ([2]; Chlorobenzene, 25 C): 2.21 log10 K
log K of transfer, gas to solvent ([2]; Cyclohexanone, 25 C): 2.03 log10 K
log K of transfer, gas to solvent ([2]; Hexadecane, 25 C): 2.05 log10 K
log K of transfer, gas to solvent ([2]; Octan-1-ol, 25 C): 1.93 log10 K
log K of transfer, gas to solvent ([2]; Water, 25 C): -1.23 log10 K

log K of transfer, water to solvent [1]: 3.88 log10 K
log K of transfer, gas to solvent ([2]; Butanone, 25 C): 3.02 log10 K
log K of transfer, gas to solvent ([2]; Butyronitrile, 25 C): 2.99 log10 K
log K of transfer, gas to solvent ([2]; Heptan-1-ol, 25 C): 3.05 log10 K
log K of transfer, gas to solvent ([2]; Hexadecane, 25 C): 3.32 log10 K
log K of transfer, gas to solvent ([2]; Octan-1-ol, 25 C): 3.05 log10 K
log K of transfer, gas to solvent ([2]; Propan-2-ol, 25 C): 2.78 log10 K
log K of transfer, gas to solvent ([2]; Propanone, 25 C): 2.88 log10 K
log K of transfer, gas to solvent ([2]; Propionitrile, 25 C): 2.85 log10 K
log K of transfer, gas to solvent ([2]; Tetrahydrofuran, 25 C): 3.42 log10 K
log K of transfer, gas to solvent ([2]; Water, 25 C): -1.25 log10 K
Compound: CC1CCCCC1

log K of transfer, water to solvent [1]: 0.465 log10 K
Compound: C1CCNC1

log K of transfer, gas to solvent ([2]; 1,2-Dichloroethane, 25 C): 2.79 log10 K
log K of transfer, gas to solvent ([2]; 2-Methylpropan-1-ol, 25 C): 2.83 log10 K
log K of transfer, gas to solvent ([2]; 2-Methylpropan-2-ol, 25 C): 2.69 log10 K
log K of transfer, gas to solvent ([2]; Benzene, 25 C): 2.97 log10 K
log K of transfer, gas to solvent ([2]; Butan-1-ol, 25 C): 2.73 log10 K
log K of transfer, gas to solvent ([2]; Butan-2-ol, 25 C): 2.67 log10 K
log K of transfer, gas to solvent ([2]; Butanone, 25 C): 2.75 log10 K
log K of transfer, gas to solvent ([2]; Butyronitrile, 25 C): 2.67 log10 K
log K of transfer, gas to solvent ([2]; CCl4, 25 C): 3.22 log10 K
log K of transfer, gas to solvent ([2]; Chlorobenzene, 25 C): 3.23 log10 K
log K of transfer, gas to solvent ([2]; Chloroform, 25 C): 3.26 log10 K
log K of transfer, gas to solvent ([2]; Cyclohexane, 25 C): 3.25 log10 K
log K of transfer, gas to solvent ([2]; Cyclohexanone, 25 C): 2.81 log10 K
log K of transfer, gas to solvent ([2]; Decan-1-ol, 25 C): 2.5 log10 K
log K of transfer, gas to solvent ([2]; Di-n-butyl ether, 25 C): 3.01 log10 K
log K of transfer, gas to solvent ([2]; Dichloromethane, 25 C): 3.01 log10 K
log K of transfer, gas to solvent ([2]; Diethyl Ether, 25 C): 3.07 log10 K
log K of transfer, gas to solvent ([2]; Ethanol, 25 C): 2.55 log10 K
log K of transfer, gas to solvent ([2]; Heptan-1-ol, 25 C): 2.73 log10 K
log K of transfer, gas to solvent ([2]; Hexadecane, 25 C): 2.96 log10 K
log K of transfer, gas to solvent ([2]; Hexan-1-ol, 25 C): 2.75 log10 K
log K of transfer, gas to solvent ([2]; Hexane, 25 C): 3.1 log10 K
log K of transfer, gas to solvent ([2]; Methanol, 25 C): 2.43 log10 K
log K of transfer, gas to solvent ([2]; Octan-1-ol, 25 C): 2.71 log10 K
log K of transfer, gas to solvent ([2]; Pentan-1-ol, 25 C): 2.72 log10 K
log K of transfer, gas to solvent ([2]; Perfluoroalkane, 25 C): 1.96 log10 K
log K of transfer, gas to solvent ([2]; Propan-1-ol, 25 C): 2.55 log10 K
log K of transfer, gas to solvent ([2]; Propan-2-ol, 25 C): 2.53 log10 K
log K of transfer, gas to solvent ([2]; Propanone, 25 C): 2.6 log10 K
log K of transfer, gas to solvent ([2]; Propionitrile, 25 C): 2.51 log10 K
log K of transfer, gas to solvent ([2]; Tetrahydrofuran, 25 C): 3.13 log10 K
log K of transfer, gas to solvent ([2]; Water, 25 C): -0.9 log10 K
log K of transfer, water to solvent ([3]; 1,2-Dichloroethane, 25 C): 3.69 log10 K
log K of transfer, water to solvent ([3]; 2-Methylpropan-1-ol, 25 C): 3.73 log10 K
log K of transfer, water to solvent ([3]; 2-Methylpropan-2-ol, 25 C): 3.59 log10 K
log K of transfer, water to solvent ([3]; Acetone, 25 C): 3.5 log10 K
log K of transfer, water to solvent ([3]; Benzene, 25 C): 3.87 log10 K
log K of transfer, water to solvent ([3]; Butan-1-ol, 25 C): 3.63 log10 K
log K of transfer, water to solvent ([3]; Butan-2-ol, 25 C): 3.57 log10 K
log K of transfer, water to solvent ([3]; Butanone, 25 C): 3.65 log10 K
log K of transfer, water to solvent ([3]; Butyronitrile, 25 C): 3.57 log10 K
log K of transfer, water to solvent ([3]; CCl4, 25 C): 4.12 log10 K
log K of transfer, water to solvent ([3]; Chlorobenzene, 25 C): 4.13 log10 K
log K of transfer, water to solvent ([3]; Chloroform, 25 C): 4.16 log10 K
log K of transfer, water to solvent ([3]; Cyclohexane, 25 C): 4.15 log10 K
log K of transfer, water to solvent ([3]; Cyclohexanone, 25 C): 3.71 log10 K
log K of transfer, water to solvent ([3]; Decan-1-ol, 25 C): 3.4 log10 K
log K of transfer, water to solvent ([3]; Di-n-butyl ether, 25 C): 3.91 log10 K
log K of transfer, water to solvent ([3]; Dichloromethane, 25 C): 3.91 log10 K
log K of transfer, water to solvent ([3]; Diethyl Ether, 25 C): 3.97 log10 K
log K of transfer, water to solvent ([3]; Ethanol, 25 C): 3.45 log10 K
log K of transfer, water to solvent ([3]; Heptan-1-ol, 25 C): 3.63 log10 K
log K of transfer, water to solvent ([3]; Hexadecane, 25 C): 3.86 log10 K
log K of transfer, water to solvent ([3]; Hexan-1-ol, 25 C): 3.65 log10 K
log K of transfer, water to solvent ([3]; Hexane, 25 C): 4 log10 K
log K of transfer, water to solvent ([3]; Methanol, 25 C): 3.33 log10 K
log K of transfer, water to solvent ([3]; Octan-1-ol(dry), 25 C): 3.61 log10 K
log K of transfer, water to solvent ([3]; Pentan-1-ol, 25 C): 3.62 log10 K
log K of transfer, water to solvent ([3]; Perfluoroalkane, 25 C): 2.86 log10 K
log K of transfer, water to solvent ([3]; Propan-1-ol, 25 C): 3.45 log10 K
log K of transfer, water to solvent ([3]; Propan-2-ol, 25 C): 3.43 log10 K
log K of transfer, water to solvent ([3]; Propionitrile, 25 C): 3.41 log10 K
log K of transfer, water to solvent ([3]; Tetrahydrofuran, 25 C): 4.03 log10 K
Compound: C1CCCCC1

log K of transfer, water to solvent [1]: 8 log10 K
Compound: CCCCCCCCCCCCCC
